In the case of `O=c1cc(-c2ccc(O)cc2)oc2cc(O)cc(O)c12`, the solubility (mole fraction) (in acetone, 288.2 K) is reported as 0.000338, the solubility (mole fraction) (in acetone, 298.2 K) is reported as 0.000367 and the solubility (mole fraction) (in acetone, 308.2 K) is reported as 0.000451. The solubility (mole fraction) (in acetone, 318.2 K) was 0.00054, the solubility (mole fraction) (in acetone, 328.2 K) was 0.000654 and the solubility (mole fraction) (in ethanol, 288.2 K) was 0.000244. For the same compound, the solubility (mole fraction) (in ethanol, 298.2 K) was 0.000295, the solubility (mole fraction) (in ethanol, 308.2 K) was 0.000346 and the solubility (mole fraction) (in ethanol, 318.2 K) was 0.000397. For the same compound, the solubility (mole fraction) (in ethanol, 328.2 K) was 0.000449, the solubility (mole fraction) (in ethyl acetate, 288.2 K) was 0.000172 and the solubility (mole fraction) (in ethyl acetate, 298.2 K) was 0.000239. For the same compound, the solubility (mole fraction) (in ethyl acetate, 308.2 K) was 0.000323, the solubility (mole fraction) (in ethyl acetate, 318.2 K) was 0.000442 and the solubility (mole fraction) (in ethyl acetate, 328.2 K) was 0.000548. For the same compound, the solubility (mole fraction) (in methanol, 288.2 K) was 0.000118, the solubility (mole fraction) (in methanol, 298.2 K) was 0.000148 and the solubility (mole fraction) (in methanol, 308.2 K) was 0.000179. The solubility (mole fraction) (in methanol, 318.2 K) was 0.000219, the solubility (mole fraction) (in methanol, 328.2 K) was 0.000254 and the solubility (mole fraction) (in n-butanol, 288.2 K) was 0.000478. For the same compound, the solubility (mole fraction) (in n-butanol, 298.2 K) was 0.000568, the solubility (mole fraction) (in n-butanol, 308.2 K) was 0.0007 and the solubility (mole fraction) (in n-butanol, 318.2 K) was 0.000822. It also gave a solubility (mole fraction) (in n-butanol, 328.2 K) of 0.000934, a solubility (mole fraction) (in n-propanol, 288.2 K) of 0.000343 and a solubility (mole fraction) (in n-propanol, 298.2 K) of 0.000401. For the same compound, the solubility (mole fraction) (in n-propanol, 308.2 K) was 0.000473, the solubility (mole fraction) (in n-propanol, 318.2 K) was 0.000564 and the solubility (mole fraction) (in n-propanol, 328.2 K) was 0.000677. The solubility (mole fraction) (in water, 288.2 K) was 7e-07, the solubility (mole fraction) (in water, 298.2 K) was 1.03e-06 and the solubility (mole fraction) (in water, 308.2 K) was 1.57e-06. The solubility (mole fraction) (in water, 318.2 K) was 2.11e-06 and the solubility (mole fraction) (in water, 328.2 K) was 2.81e-06.
